Measured values published in article PMC10400981, “An expandable, modular de novo protein platform for precision redox engineering” (Proceedings of the National Academy of Sciences of the …, 2023).

Tests used:
[1] = target: T1, 4D2; assay: […] Å crystal structure (MAD); hemin titration by UV/visible; nondenaturing MS; format: binding, synthetic construct
T1 construct: single-chain de novo four-helix bundle, 112 amino acids after TEV cleavage

[2] = target: T2, m4D2; assay: hemin titration of apo-m4D2 by UV/visible; nondenaturing MS ([…]); format: binding, synthetic construct
T2 construct: monoheme redesign of 4D2

[3] = target: T2, m4D2; assay: binding titration; 2D/3D NMR of the complex; design: species or system synthetic construct

Row | Structure (SMILES) | Kd [1] | Kd [2] | Kd [3]
1 | C=CC1=C(C)C2=Cc3c(C=C)c(C)c4[n]3[Fe][n]3c(c(C)c(CCC(=O)O)c3=CC3=NC(=C4)C(C)=C3CCC(=O)O)=CC1=N2 [heme B] | < 5 nM | 4.2 nM | –
2 | CC1=C(C)C2=[N+]3C1=Cc1c(C)c(CCC(=O)O)c4[n]1[Fe-]31[n]3c(c(C)c(C)c3=CC3=[N+]1C(=C4)C(CCC(=O)O)=C3C)=C2 (stereo not drawn) [Fe(III) DMDPIX] | – | – | 25 nM
